Data published in patent US9708368B2, “Linear peptide antibiotics” (priority 2012, dated 2017).
≈ marks a conversion by molar mass, not a printed value. Numbered stars: 1 amine (or outer) side, 2 acyl side, 3 side chain; on linkers, the order of the positions; unused ones are H or OH. Square brackets hold non-standard residues; d marks the D form. Peptide text beside a SMILES is read from it. * marks the point of attachment. ξ: configuration not given here. boroAla((+)-pinanediol) = C[C@H](N*)B1O[C@@H]2C[C@@H]3C[C@@H](C3(C)C)[C@]2(C)O1; Biphenylcarbonyl(4'-Bu) = CCCCc1ccc(-c2ccc(C(=O)*)cc2)cc1; X1 = C[C@H](N*)B1OC2C[C@@H]3C[C@@H](C3(C)C)[C@]2(C)O1; Benzoyl(4-(4-Cl-Ph)) = O=C(c1ccc(-c2ccc(Cl)cc2)cc1)*; ξPro(4S-NH2) = O=C(C1C[C@H](N[*:3])CN1[*:1])[*:2]; ξ3Amino2oxobutanoyl = CC(N[*:1])C(=O)C(=O)[*:2]; Benzoyl(4-hexyl) = CCCCCCc1ccc(C(=O)*)cc1; NMeThr(3ξ) = CN[C@H](C(=O)O)C(C)O; X9 = COC(=O)CN1C[C@@H](N*)C1=O; Tle = CC(C)(C)[C@H](N)C(=O)O; Lauroyl = CCCCCCCCCCCC(=O)*; boroAla = C[C@H](N*)B(O)O; Orn = NCCC[C@H](N)C(=O)O; Dab = NCC[C@H](N)C(=O)O; Abu = CC[C@H](N)C(=O)O; Ac3c = NC1(C(=O)O)CC1; boroGly = OB(O)CN*; βAla = NCCC(=O)O

Legend:
S. aureus SPase = S. aureus SPase (Staphylococcus aureus, UniProt P0A070); experiment: biochemical
E. coli SPase = E. coli SPase (Escherichia coli, UniProt P00803); experiment: Biochemical SPase activity assay (fluorogenic peptide substrate), E. coli enzyme
[1] = system: Escherichia coli strain MC4100 IMP-4213, which harbors an LptD mutation; settings: Method B; E. coli MC4100 IMP-4213 (LptD mutation); 35° C., 22 hours
Description: In vitro antimicrobial activity of each compound was determined by measuring minimal inhibitor concentrations (MICs) using the broth micro-dilution technique as approved by the Clinical and Laboratory Standards Institute (CLSI). […] Bacterial inocula were prepared by scraping cells into 1 mL of testing media (cation adjusted Mueller Hinton Broth supplemented with 0.002% v/v Tween-80) and diluting to a final OD600 nm of 0.01.
Test compounds were prepared in DMSO at a concentration of 10 mg/ml. […] Bacterial inocula were added to the two fold serial dilutions of test compounds to a final density of OD OD600 nm of 0.0005 and incubated stationarily at 35° C. for 22 hours, after which the plates were examined visually.

[2] = system: methicillin resistant Staphylococcus aureus (MRSA) strain USA300 (NRS384); settings: Method B, 35° C., 22 hours

Structure (SMILES)	IC50 (S. aureus SPase) [nM]	IC50 (E. coli SPase) [nM]	MIC (μg/mL) E. coli [1] [µg/mL]	MIC (μg/mL) S. aureus [2] [µg/mL]
CCCCCCc1ccc(C(=O)N[C@H](CO)C(=O)N[C@H](C)C(=O)NCC(=O)N(C)[C@H](C(=O)N[C@@H](C)C(=O)N[C@@H](CC(N)=O)C(=O)NC(C)C(=O)C(=O)NC)C(C)O)cc1 (stereo partly drawn) [Compound 113] ({Benzoyl(4-hexyl)}-[dS][dA]G[NMeThr(3ξ)]AN[ξ3Amino2oxobutanoyl]-NHMe)	470	–	–	–
CCCCCCc1ccc(C(=O)N[C@H](CO)C(=O)N[C@H](C)C(=O)NCC(=O)N(C)[C@H](C(=O)N[C@@H](C)C(=O)N[C@@H](CC(C)C)C(=O)NC(C)C(=O)C(=O)NC)C(C)O)cc1 (stereo partly drawn) [Compound 114] ({Benzoyl(4-hexyl)}-[dS][dA]G[NMeThr(3ξ)]AL[ξ3Amino2oxobutanoyl]-NHMe)	390	–	–	–
CCCCCCc1ccc(C(=O)N[C@H](CO)C(=O)N[C@H](C)C(=O)NCC(=O)N(C)[C@H](C(=O)N[C@@H](C)C(=O)N[C@@H](CC(C)C)C(=O)NCB(O)O)C(C)O)cc1 (stereo partly drawn) [Compound 125] ({Benzoyl(4-hexyl)}-[dS][dA]G[NMeThr(3ξ)]AL-boroGly)	55	730	–	–
CCCCc1ccc(-c2ccc(C(=O)N[C@@H](CCCCN)C(=O)N[C@H](C(=O)N[C@@H](C)C(=O)N[C@@H](CC(N)=O)C(=O)N[C@@H](C)B3O[C@@H]4C[C@@H]5C[C@@H](C5(C)C)[C@]4(C)O3)[C@@H](C)O)cc2)cc1 [Compound 129] ({Biphenylcarbonyl(4'-Bu)}-KTAN-{boroAla((+)-pinanediol)})	140	14	0.91 (≈ 1.04 µM)	0.74 (≈ 0.847 µM)
CCCCc1ccc(-c2ccc(C(=O)N[C@@H](CCCCN)C(=O)N[C@H](C(=O)N[C@@H](C)C(=O)N[C@@H](CC(N)=O)C(=O)N[C@@H](C)B(O)O)[C@@H](C)O)cc2)cc1 [Compound 131] ({Biphenylcarbonyl(4'-Bu)}-KTAN-boroAla)	98	19	0.44 (≈ 0.595 µM)	0.45 (≈ 0.608 µM)
CCCCc1ccc(-c2ccc(C(=O)N[C@@H](CCCCN)C(=O)N[C@H](C(=O)N[C@@H](C)C(=O)N[C@@H](CCCCN)C(=O)N[C@@H](C)B3OC4C[C@@H]5C[C@@H](C5(C)C)[C@]4(C)O3)[C@@H](C)O)cc2)cc1 (stereo partly drawn) [Compound 132] ({Biphenylcarbonyl(4'-Bu)}-KTAK-X1)	77	24	1 (≈ 1.13 µM)	0.21 (≈ 0.236 µM)
CCCCc1ccc(-c2ccc(C(=O)N[C@@H](CCCCN)C(=O)N3CCC[C@H]3C(=O)N[C@@H](C)C(=O)N[C@@H](CC(N)=O)C(=O)N[C@@H](C)B3O[C@@H]4C[C@@H]5C[C@@H](C5(C)C)[C@]4(C)O3)cc2)cc1 [Compound 133] ({Biphenylcarbonyl(4'-Bu)}-KPAN-{boroAla((+)-pinanediol)})	170	15	0.79 (≈ 0.908 µM)	1.4 (≈ 1.61 µM)
CCCCc1ccc(-c2ccc(C(=O)N[C@@H](CCCCN)C(=O)N[C@@H](CCCCN)C(=O)N[C@@H](C)C(=O)N[C@@H](CC(N)=O)C(=O)N[C@@H](C)B3O[C@@H]4C[C@@H]5C[C@@H](C5(C)C)[C@]4(C)O3)cc2)cc1 [Compound 134] ({Biphenylcarbonyl(4'-Bu)}-KKAN-{boroAla((+)-pinanediol)})	120	8.7	1.4 (≈ 1.55 µM)	0.87 (≈ 0.966 µM)
CCCCc1ccc(-c2ccc(C(=O)N[C@@H](CCCCN)C(=O)N[C@@H](Cc3c[nH]cn3)C(=O)N[C@@H](C)C(=O)N[C@@H](CC(N)=O)C(=O)N[C@@H](C)B(O)O)cc2)cc1 [Compound 136] ({Biphenylcarbonyl(4'-Bu)}-KHAN-boroAla)	39	14	1 (≈ 1.29 µM)	1.4 (≈ 1.8 µM)
CCCCc1ccc(-c2ccc(C(=O)N[C@@H](CCCCN)C(=O)NC3(C(=O)N[C@@H](C)C(=O)N[C@@H](CCCCN)C(=O)N[C@@H](C)B4OC5C[C@@H]6C[C@@H](C6(C)C)[C@]5(C)O4)CC3)cc2)cc1 (stereo partly drawn) [Compound 137] ({Biphenylcarbonyl(4'-Bu)}-K[Ac3c]AK-X1)	26000	1200	23 (≈ 26.4 µM)	16 (≈ 18.4 µM)
CCCCc1ccc(-c2ccc(C(=O)N[C@@H](Cc3c[nH]c4ccccc34)C(=O)N[C@H](C(=O)N[C@@H](C)C(=O)N[C@@H](CCCCN)C(=O)N[C@@H](C)B3OC4C[C@@H]5C[C@@H](C5(C)C)[C@]4(C)O3)[C@@H](C)O)cc2)cc1 (stereo partly drawn) [Compound 138] ({Biphenylcarbonyl(4'-Bu)}-WTAK-X1)	1100	1000	>64	5 (≈ 5.29 µM)
CCCCc1ccc(-c2ccc(C(=O)N3C[C@@H](N)CC3C(=O)N[C@H](C(=O)N[C@@H](C)C(=O)N[C@@H](CC(N)=O)C(=O)N[C@@H](C)B3OC4C[C@@H]5C[C@@H](C5(C)C)[C@]4(C)O3)[C@@H](C)O)cc2)cc1 (stereo partly drawn) [Compound 139] ({Biphenylcarbonyl(4'-Bu)}-[ξPro(4S-NH2)]TAN-X1)	8.5	3.4	2 (≈ 2.33 µM)	1 (≈ 1.17 µM)
CCCCc1ccc(-c2ccc(C(=O)N[C@@H](CCCCN)C(=O)N[C@H](C(=O)N[C@@H](C)C(=O)N[C@@H](CCN)C(=O)N[C@@H](C)B3O[C@@H]4C[C@@H]5C[C@@H](C5(C)C)[C@]4(C)O3)[C@@H](C)O)cc2)cc1 [Compound 140] ({Biphenylcarbonyl(4'-Bu)}-KTA[Dab]-{boroAla((+)-pinanediol)})	52	50	8 (≈ 9.3 µM)	1 (≈ 1.16 µM)
CCCCCCCCCCCC(=O)N[C@@H](CCCCN)C(=O)N[C@H](C(=O)N[C@@H](C)C(=O)N[C@@H](CCCCN)C(=O)N[C@@H](C)B1OC2C[C@@H]3C[C@@H](C3(C)C)[C@]2(C)O1)[C@@H](C)O (stereo partly drawn) [Compound 141] (Lauroyl-KTAK-X1)	23	33	5.7 (≈ 6.83 µM)	0.79 (≈ 0.947 µM)
CCCCc1ccc(-c2ccc(C(=O)N[C@@H](CCCN)C(=O)N[C@H](C(=O)N[C@@H](C)C(=O)N[C@@H](CCCCN)C(=O)N[C@@H](C)B3OC4C[C@@H]5C[C@@H](C5(C)C)[C@]4(C)O3)[C@@H](C)O)cc2)cc1 (stereo partly drawn) [Compound 142] ({Biphenylcarbonyl(4'-Bu)}-[Orn]TAK-X1)	34	15	0.5 (≈ 0.572 µM)	0.22 (≈ 0.252 µM)
CCCCc1ccc(-c2ccc(C(=O)N[C@@H](Cc3c[nH]cn3)C(=O)N[C@H](C(=O)N[C@@H](C)C(=O)N[C@@H](CCCCN)C(=O)N[C@@H](C)B3OC4C[C@@H]5C[C@@H](C5(C)C)[C@]4(C)O3)[C@@H](C)O)cc2)cc1 (stereo partly drawn) [Compound 143] ({Biphenylcarbonyl(4'-Bu)}-HTAK-X1)	180	250	5.7 (≈ 6.35 µM)	0.35 (≈ 0.39 µM)
CCCCc1ccc(-c2ccc(C(=O)N[C@@H](CCCCN)C(=O)N[C@H](C(=O)N[C@@H](CC)C(=O)N[C@@H](CC(N)=O)C(=O)N[C@@H](C)B3O[C@@H]4C[C@@H]5C[C@@H](C5(C)C)[C@]4(C)O3)[C@@H](C)O)cc2)cc1 [Compound 144] ({Biphenylcarbonyl(4'-Bu)}-KT[Abu]N-{boroAla((+)-pinanediol)})	36	18	0.25 (≈ 0.282 µM)	0.25 (≈ 0.282 µM)
CC(C)C[C@H](NC(=O)[C@H](C)NC(=O)[C@H](CCCCN)NC(=O)[C@H](CCCCN)NC(=O)c1ccc(-c2ccc(Cl)cc2)cc1)C(=O)N[C@@H](C)B1OC2C[C@@H]3C[C@@H](C3(C)C)[C@]2(C)O1 (stereo partly drawn) [Compound 145] ({Benzoyl(4-(4-Cl-Ph))}-KKAL-X1)	240	39	5 (≈ 5.69 µM)	3.2 (≈ 3.64 µM)
CC(C)C[C@H](NC(=O)[C@H](C)NC(=O)[C@H](CCCCN)NC(=O)[C@H](CCCCN)NC(=O)c1ccc(-c2ccc(Cl)cc2)cc1)C(=O)N[C@@H](C)B(O)O [Compound 155] ({Benzoyl(4-(4-Cl-Ph))}-KKAL-boroAla)	250	39	–	–
CCCCc1ccc(-c2ccc(C(=O)NCCC(=O)N[C@@H](CCCCN)C(=O)N[C@H](C(=O)N[C@@H](C)C(=O)N[C@H](C(=O)N[C@@H](C)B3OC4C[C@@H]5C[C@@H](C5(C)C)[C@]4(C)O3)C(C)(C)C)[C@@H](C)O)cc2)cc1 (stereo partly drawn) [Compound 211] ({Biphenylcarbonyl(4'-Bu)-βAla}-KTA[Tle]-X1)	36	–	32 (≈ 33.9 µM)	0.71 (≈ 0.752 µM)
CCCCc1ccc(-c2ccc(C(=O)N[C@@H](CCCCN)C(=O)N3CCC[C@H]3C(=O)N[C@@H](C)C(=O)N[C@@H](CCCCN)C(=O)N[C@@H]3CN(CC(=O)OC)C3=O)cc2)cc1 [Compound 258] ({Biphenylcarbonyl(4'-Bu)}-KPAK-X9)	50000	–	23 (≈ 28.1 µM)	>64
CCCCc1ccc(-c2ccc(CN[C@@H](CCN)C(=O)N[C@H](C(=O)N[C@@H](C)C(=O)N[C@@H](CCCCN)C(=O)N[C@@H](C)B(O)O)[C@@H](C)O)cc2)cc1 [Compound 267]	33	11	–	–
CCCCc1ccc(-c2ccc(C(=O)N[C@@H](CCN)C(=O)N[C@H](C(=O)N[C@@H](C)C(=O)N[C@@H](CCCCN)C(=O)N[C@@H](C)B(O)O)[C@@H](C)O)cc2)cc1 [Compound 267] ({Biphenylcarbonyl(4'-Bu)}-[Dab]TAK-boroAla)	–	–	–	0.13 (≈ 0.179 µM)
